According to ChEMBL document CHEMBL4312024, “Optimization of piperazine-derived ureas privileged structures for effective antiadenovirus agents” (Eur J Med Chem, 2020):
Calls of active or inactive are those of the source. The rule behind the calls is not given here.

How the values were obtained:
Human adenovirus 5 [1] = assay: Antiviral activity against Human adenovirus 5 infected in HEK293beta5 cells coexpressing GFP assessed as inhibition of plaque formation at 10 uM incubated for 7 days relative to control; type: functional; conditions: Human mastadenovirus C, 168 h
[2] = Selectivity Index, ratio of CC50 for human A549 cells to IC50 for Human adenovirus 5 infected in HEK293beta5 cells coexpressing GFP; type: toxicity, cell-based; conditions: read-out: Ratio CC50/IC50
Human adenovirus 5 [3] = assay: Antiviral activity against Human adenovirus 5 infected in A549 cells assessed as fold reduction in virus yield at 50 uM incubated for 48 hrs by endpoint dilution method relative to control; type: functional
Human adenovirus 5 [4] = assay: Antiviral activity against Human adenovirus 5 infected in HEK293beta5 cells coexpressing GFP assessed as inhibition of plaque formation incubated for 7 days; type: functional, organism-based; conditions: Human mastadenovirus C, 168 h
[5] = Cytotoxicity against human A549 cells assessed as reduction in cell viability incubated for 48 hrs by alamarBlue assay; type: cell-based
Human adenovirus 5 [6] = assay: Antiviral activity against Human adenovirus 5 infected in A549 cells assessed as decrease in […] cDNA copies at 50 uM incubated for 24 hrs by qRT-PCR analysis; type: functional, organism-based
Human adenovirus 5 [7] = assay: Antiviral activity against Human adenovirus 5 infected in A549 cells assessed as nuclear associated viral DNA copies at 50 uM incubated for 45 mins by qRT-PCR analysis; type: functional, organism-based
Human betaherpesvirus 5 = assay: Antiviral activity against Human cytomegalovirus infected in MRC5 cells assessed as decrease in viral DNA copies at 50 uM incubated for 72 hrs by qRT-PCR analysis; type: functional, organism-based

SMILES	inhibition at 10 µM (Human adenovirus 5 [1])	CC50 at 48 h [5]	other results
CC1CN(C(=O)CC(C)(C)C)CCN1C(=S)Nc1ccc(Cl)cc1 (stereo not given)	61.6%	–	–
O=C(c1cc2ccccc2o1)N1CCN(C(=O)Nc2ccc([N+](=O)[O-])cc2)C(c2ccccc2)C1 (stereo not given)	100%	–	selectivity ratio [2]: 93.5
O=C(c1cc2ccccc2o1)N1CCN(C(=O)c2cc3ccccc3o2)CC1	51.5%	–	–
O=C(c1cc2ccccc2o1)N1CCN(C(=O)Nc2ccccc2[N+](=O)[O-])C(c2ccccc2)C1 (stereo not given)	100%	–	selectivity ratio [2]: 79; fold change (FC) (Human adenovirus 5 [3]): 9.9
O=C(CC1CCCCC1)N1CCN(C(=S)Nc2ccc(F)cc2)C(c2ccccc2)C1 (stereo not given)	5%	–	–
Nc1ccn(C[C@@H](CO)OCP(=O)(O)O)c(=O)n1.O.O [CIDOFOVIR]	3.51%	50.6 µM	fold change (FC) (Human adenovirus 5 [3]): 82.5; IC50 (Human adenovirus 5 [4]): 24.1 µM
CC1CN(C(=O)c2cc3ccccc3o2)CCN1C(=S)Nc1ccc([N+](=O)[O-])cc1 (stereo not given)	100%	20 µM	–
O=C(Cc1ccccc1)N1CCN(C(=S)Nc2ccc([N+](=O)[O-])cc2)C(c2ccccc2)C1 (stereo not given)	5.5%	–	–
CC1CN(C(=O)CC2CCCCC2)CCN1C(=S)Nc1ccc([N+](=O)[O-])cc1 (stereo not given)	82.6%	148 µM	–
COc1ccc(NC(=S)N2CCN(C(=O)CC(C)(C)C)CC2C)cc1 (stereo not given)	58.1%	–	–
CC(C)(C)OC(=O)N1CCN(C(=O)Nc2ccccc2[N+](=O)[O-])CC1	15%	–	–
COc1ccc(NC(=S)N2CCN(C(=O)CC3CCCCC3)CC2C)cc1 (stereo not given)	25.5%	–	–
O=C(Nc1cc(C(F)(F)F)ccc1Cl)N1CCN(C(=O)Nc2cc(C(F)(F)F)ccc2Cl)CC1	33.9%	–	–
CC1CN(C(=O)Cc2ccccc2)CCN1C(=S)Nc1ccc(C#N)cc1 (stereo not given)	98.4%	175 µM	selectivity ratio [2]: 38; fold change (FC) (Human adenovirus 5 [3]): 18.4; Activity (Human adenovirus 5 [6]): inactive; IC50 (Human adenovirus 5 [4]): 4.6 µM; Activity (Human adenovirus 5 [7]): Active; Activity (Human betaherpesvirus 5): Active
N#Cc1ccc(NC(=S)N2CCN(C(=O)Cc3ccccc3)CC2c2ccccc2)cc1 (stereo not given)	64%	–	–
Cc1ccc(NC(=O)N2C(C)CN(C(=O)c3cc4ccccc4o3)CC2C)cc1 (stereo not given)	0%	–	–
CC1CN(C(=O)OC(C)(C)C)CCN1C(=S)Nc1ccc(Cl)cc1 (stereo not given)	73.4%	–	–
O=C(Nc1ccc([N+](=O)[O-])cc1)N1CCN(C(=O)c2cc3ccccc3o2)CC1	0%	–	–
CC1CN(C(=O)c2cc3ccccc3o2)CCN1C(=S)Nc1ccc(F)cc1 (stereo not given)	85%	75.4 µM	–
CC1CN(C(=O)CC(C)(C)C)CCN1C(=S)Nc1cc(C(F)(F)F)cc(C(F)(F)F)c1 (stereo not given)	4.81%	–	–
Cc1ccc(NC(=S)N2CCN(C(=O)Cc3ccccc3)CC2C)cc1 (stereo not given)	92.9%	200 µM	–
CC1CN(C(=O)c2cc3ccccc3o2)CC(C)N1C(=O)Nc1ccccc1[N+](=O)[O-] (stereo not given)	72.2%	–	–
CC1CN(C(=O)OC(C)(C)C)CCN1C(=S)Nc1ccc(C(F)(F)F)cc1 (stereo not given)	73.4%	–	–

SMILES	inhibition at 10 µM (Human adenovirus 5 [1])	CC50 at 48 h [5]	other results
COc1ccc(NC(=S)N2CCN(C(=O)Cc3ccccc3)CC2C)cc1 (stereo not given)	88.9%	175 µM	–
N#Cc1ccc(NC(=S)N2CCN(C(=O)CC3CCCCC3)CC2c2ccccc2)cc1 (stereo not given)	80%	65.3 µM	–
O=C(Cc1ccccc1)N1CCN(C(=O)Nc2ccccc2[N+](=O)[O-])C(c2ccccc2)C1 (stereo not given)	96.9%	120 µM	selectivity ratio [2]: 57.4; fold change (FC) (Human adenovirus 5 [3]): 32.9; IC50 (Human adenovirus 5 [4]): 2.1 µM; Activity (Human adenovirus 5 [7]): Active; Activity (Human betaherpesvirus 5): Active
CC1CN(C(=O)c2cc3ccccc3o2)CC(C)N1C(=O)Nc1ccc([N+](=O)[O-])cc1 (stereo not given)	12.2%	–	–
CC1CN(C(=O)CC2CCCCC2)CCN1C(=S)Nc1ccc(C(F)(F)F)cc1 (stereo not given)	88.9%	142 µM	–
O=C(CC1CCCCC1)N1CCN(C(=O)Nc2ccc([N+](=O)[O-])cc2)C(c2ccccc2)C1 (stereo not given)	98.9%	71.8 µM	–
CC1CN(C(=O)c2cc3ccccc3o2)CC(C)N1C(=O)Nc1ccc(C#N)cc1 (stereo not given)	10%	–	–
CC1CN(C(=O)c2cc3ccccc3o2)CC(C)N1C(=O)Nc1ccc(Cl)c(C(F)(F)F)c1 (stereo not given)	0%	–	–
O=C(c1cc2ccccc2o1)N1CCN(C(=O)Nc2ccc(Cl)cc2)C(c2ccccc2)C1 (stereo not given)	–	–	selectivity ratio [2]: 42.7; fold change (FC) (Human adenovirus 5 [3]): 16.9
CC1CN(C(=O)c2cc3ccccc3o2)CCN1C(=S)Nc1ccc(C(F)(F)F)cc1 (stereo not given)	100%	46.3 µM	–
O=C(Cc1ccccc1)N1CCN(C(=O)Nc2cc(C(F)(F)F)ccc2Cl)C(c2ccccc2)C1 (stereo not given)	100%	64.5 µM	–
CC1CN(C(=O)CC(C)(C)C)CCN1C(=S)Nc1ccc(C(F)(F)F)cc1 (stereo not given)	36.3%	–	–
Cc1ccc(NC(=S)N2CCN(C(=O)CC3CCCCC3)CC2c2ccccc2)cc1 (stereo not given)	15%	–	–
CC1CN(C(=O)OC(C)(C)C)CCN1C(=S)Nc1ccc(C#N)cc1 (stereo not given)	88.9%	175 µM	–
O=C(Cc1ccccc1)N1CCN(C(=O)Nc2ccc([N+](=O)[O-])cc2)C(c2ccccc2)C1 (stereo not given)	82.6%	174 µM	–
O=C(CC1CCCCC1)N1CCN(C(=O)Nc2ccccc2[N+](=O)[O-])C(c2ccccc2)C1 (stereo not given)	100%	112 µM	selectivity ratio [2]: 80.1; fold change (FC) (Human adenovirus 5 [3]): 15.2; IC50 (Human adenovirus 5 [4]): 1.4 µM; Activity (Human adenovirus 5 [7]): Active; Activity (Human betaherpesvirus 5): Active
CC1CN(C(=O)Cc2ccccc2)CCN1C(=S)Nc1ccc(F)cc1 (stereo not given)	100%	26.3 µM	–
CC(C)(C)OC(=O)N1CCN(C(=O)Nc2ccc([N+](=O)[O-])cc2)CC1	91.5%	118 µM	selectivity ratio [2]: 43.7; fold change (FC) (Human adenovirus 5 [3]): 21.2; Activity (Human adenovirus 5 [6]): inactive; IC50 (Human adenovirus 5 [4]): 2.7 µM; Activity (Human adenovirus 5 [7]): Active; Activity (Human betaherpesvirus 5): Active
CC(C)(C)OC(=O)N1CCN(C(=O)Nc2cc(C(F)(F)F)ccc2Cl)CC1	95%	200 µM	selectivity ratio [2]: 87; fold change (FC) (Human adenovirus 5 [3]): 18.7; IC50 (Human adenovirus 5 [4]): 2.3 µM; Activity (Human adenovirus 5 [7]): Active; Activity (Human betaherpesvirus 5): Active
CC(C)(C)OC(=O)N1CCN(C(=O)Nc2ccc([N+](=O)[O-])cc2)C(c2ccccc2)C1 (stereo not given)	–	–	selectivity ratio [2]: 47.3
CC1CN(C(=O)CC(C)(C)C)CCN1C(=S)Nc1ccc([N+](=O)[O-])cc1 (stereo not given)	76.2%	–	–
CC1CN(C(=O)Cc2ccccc2)CCN1C(=S)Nc1ccc(C(F)(F)F)cc1 (stereo not given)	73.4%	–	–
Cc1ccc(NC(=S)N2CCN(C(=O)CC(C)(C)C)CC2C)cc1 (stereo not given)	76.8%	–	–

SMILES	inhibition at 10 µM (Human adenovirus 5 [1])	CC50 at 48 h [5]	other results
CC1CN(C(=O)c2cc3ccccc3o2)CC(C)N1C(=O)Nc1ccc(Cl)cc1 (stereo not given)	81.1%	113 µM	–
CC1CN(C(=O)c2cc3ccccc3o2)CCN1C(=S)Nc1ccc(C#N)cc1 (stereo not given)	100%	25.5 µM	–
CC1CN(C(=O)CC2CCCCC2)CCN1C(=S)Nc1ccc(C#N)cc1 (stereo not given)	100%	193 µM	selectivity ratio [2]: 77.2; fold change (FC) (Human adenovirus 5 [3]): 9.3; IC50 (Human adenovirus 5 [4]): 2.5 µM; Activity (Human adenovirus 5 [7]): Active
CC1CN(C(=O)OC(C)(C)C)CCN1C(=S)Nc1cc(C(F)(F)F)cc(C(F)(F)F)c1 (stereo not given)	11.1%	–	–
CC1CN(C(=O)Cc2ccccc2)CCN1C(=S)Nc1ccc(Cl)cc1 (stereo not given)	84.6%	175 µM	–
CC(C)(C)CC(=O)N1CCN(C(=O)Nc2ccccc2[N+](=O)[O-])C(c2ccccc2)C1 (stereo not given)	100%	63.3 µM	–
CC(C)(C)CC(=O)N1CCN(C(=S)Nc2cc(C(F)(F)F)cc(C(F)(F)F)c2)C(c2ccccc2)C1 (stereo not given)	100%	91.8 µM	–
CC1CN(C(=O)CC(C)(C)C)CCN1C(=S)Nc1ccc(F)cc1 (stereo not given)	7.5%	–	–
CC1CN(C(=O)CC2CCCCC2)CCN1C(=S)Nc1cc(C(F)(F)F)cc(C(F)(F)F)c1 (stereo not given)	100%	82.4 µM	–
O=C(Nc1cc(C(F)(F)F)ccc1Cl)N1CCN(C(=O)Nc2cc(C(F)(F)F)ccc2Cl)C(c2ccccc2)C1 (stereo not given)	90.4%	200 µM	–
O=C(c1cc2ccccc2o1)N1CCN(C(=O)Nc2cc(C(F)(F)F)ccc2Cl)C(c2ccccc2)C1 (stereo not given)	–	–	selectivity ratio [2]: 116
O=C(Nc1ccccc1[N+](=O)[O-])N1CCN(C(=O)c2cc3ccccc3o2)CC1	41.5%	–	–
CC(C)(C)OC(=O)N1CCN(C(=S)Nc2ccc(F)cc2)C(c2ccccc2)C1 (stereo not given)	27.5%	–	–
CC(C)(C)CC(=O)N1CCN(C(=O)Nc2ccc([N+](=O)[O-])cc2)C(c2ccccc2)C1 (stereo not given)	74.4%	72 µM	–
CC1CN(C(=O)OC(C)(C)C)CCN1C(=S)Nc1ccc([N+](=O)[O-])cc1 (stereo not given)	100%	–	–
CC1CN(C(=O)CC2CCCCC2)CCN1C(=S)Nc1ccc(Cl)cc1 (stereo not given)	89.3%	200 µM	–
CC1CN(C(=O)c2cc3ccccc3o2)CC(C)N1C(=O)Nc1cc(C(F)(F)F)ccc1Cl (stereo not given)	0%	–	–
CC1CN(C(=O)CC(C)(C)C)CCN1C(=S)Nc1ccc(C#N)cc1 (stereo not given)	51%	–	–
Cc1ccc(NC(=S)N2CCN(C(=O)OC(C)(C)C)CC2C)cc1 (stereo not given)	49.1%	–	–
N#Cc1ccc(NC(=O)N2CCN(C(=O)c3cc4ccccc4o3)CC2c2ccccc2)cc1 (stereo not given)	–	–	selectivity ratio [2]: 53.3; fold change (FC) (Human adenovirus 5 [3]): 34.5
O=C(c1cc2ccccc2o1)N1CCN(C(=O)c2cc3ccccc3o2)C(c2ccccc2)C1 (stereo not given)	19.4%	–	–
COc1ccc(NC(=S)N2CCN(C(=O)OC(C)(C)C)CC2C)cc1 (stereo not given)	36.5%	–	–
